What was measured:
Type in all cases: cell-based
OVCAR8 ARV-R cells [1] = assay: CellTiter-Glo cell viability, OVCAR8 ARV-R cells; conditions: escalating doses, 5 days
[2] = test system: BET proteins (BRD2, BRD3, BRD4); assay: Western blot of BET proteins and BRD4 targets, OVCAR8 MZ1-R cells; conditions: Western blot
[3] = test system: BET proteins (BRD2, BRD3, BRD4); assay: Western blot of BET proteins, OVCAR8 ARV-R cells
[4] = test system: INSR and downstream MTOR, AKT and MAPK signaling; assay: Kinase signaling in BBD-R cells (MIB-MS, phospho-blot); conditions: for phosphorylation of P70S6K (T359): BBD-R cells (MZ1-R, ARV-R), 1 μM, 4 hours
Experimental: Reduced MIB-binding of kinases involved in cell cycle (WEE1, CHEK1, CDK2, CDK6 and PLK1), as well as kinases required for translation (EIF2AK1, EIF2AK2, and EIF2AK4) were also observed following GSK529A treatment. […] Enrichment maps of pathways repressed by INSR inhibition generated from MIB-MS profiles of OVCAR8 cells treated with GSK529A (1 μM) treatment for 48 hours. Statistical differences in protein log 2 LFQ z-scores comparing GSK529A to control treated MZ1-R cells was determined by paired T-Test Benjamini- Hochberg adjusted p values at FDR of <0.05 using Perseus Software. […] Enrichment maps were generated in Cytoscape using the Enrichment Map app v2.2.1. (data not shown).

BRD2, BRD3 or BRD4 RNA = assay: qRT-PCR of BRD RNA levels, OVCAR8 MZ1-R cells; conditions: 1 μM, 48 hours
[5] = test system: KURAMOCHI, COV362 and OVCAR5 MZ1-R cells; assay: CellTiter-Glo cell viability, KURAMOCHI, COV362 and OVCAR5 MZ1-R cells; conditions: COV362 and OVCAR5, escalating doses, 5 days
[6] = test system: BET proteins (BRD2, BRD4); assay: Western blot of BET proteins, KURAMOCHI, COV362 and OVCAR5 MZ1-R cells
OVCAR5 JQ1-R cells = assay: Growth curves, OVCAR5 JQ1-R cells
OVCAR8 JQ1-R cells [7] = assay: CellTiter-Glo cell viability, OVCAR8 JQ1-R cells; conditions: escalating doses, 5 days
OVCAR8 MZ1-R cells [8] = assay: CellTiter-Glo cell viability, OVCAR8 MZ1-R cells; conditions: escalating doses, 5 days; for cell viability of MZ1-R cells compared with parental cells: OVCAR8 MZ1-R; for sensitivity of MZ1-R cells relative to JQ1-R cells or parental cells: OVCAR8, inhibitor screen
OVCAR8 cells [9] = assay: CellTiter-Glo cell viability, OVCAR8 parental cells; conditions: dose escalation, 5 days
[10] = test system: translation markers, RNA pol II, MYC; assay: Western blot of translation, BRD4-targets and MYC signaling, OVCAR8 cells; conditions: 500 nM, 48 hours
BET proteins, FOSL1, MYC = assay: Western blot of BET proteins and BRD4 targets, JQ1-R cells
[11] = test system: BET proteins (BRD2, BRD3, BRD4); assay: Western blot of BET protein levels, OVCAR8 parental cells
OVCAR8 cells [12] = assay: Single-run proteome analysis and RNA-seq, OVCAR8 cells; conditions: 48 hours, single-run proteome analysis
Experimental: Enrichment maps of pathways repressed by short-term BBD generated from single-run proteome profiles of OVCAR8 cells treated with BBDs (MZ1 or ARV825) for 48 hours were prepared (data not shown). Statistical differences in protein log 2 LFQ z-scores comparing BBDs or BBIs to control treated cells was determined by paired T-Test Benjamini-Hochberg adjusted p values at FDR of <0.05 using Perseus Software. […] Enrichment maps were generated in Cytoscape using the Enrichment Map app v2.2.1. […] Statistical differences in protein log 2 LFQ z-scores comparing BBDs or BBIs to control treated cells was determined.

OVCAR8 MZ1-R cells [13] = assay: Apoptosis by Western blot, OVCAR8 MZ1-R cells
OVCAR8 JQ1-R cells [14] = assay: Apoptosis by cleaved PARP Western blot, OVCAR8 JQ1-R cells
OVCAR8 ARV-R cells [15] = assay: Apoptosis by cleaved PARP Western blot, OVCAR8 ARV-R cells

SMILES: CS(=O)(=O)CCNCc1ccc(-c2ccc3ncnc(Nc4ccc(OCc5cccc(F)c5)c(Cl)c4)c3c2)o1 [lapatinib]
- cell viability of ARV-R cells compared with parental cells (OVCAR8 ARV-R cells [1]): reduced cell viability more than in parental cells
- BET protein levels [2]: reduced BRD2 and BRD4 levels
- BET protein levels [3]: reduced BRD2 and BRD4 levels
- phosphorylation of P70S6K (T359) [4]: reduced MTOR-mediated phosphorylation of P70S6K (T359)
- BRD2, BRD3 or BRD4 RNA levels (BRD2, BRD3 or BRD4 RNA): unaffected
- cell viability / growth of MZ1-R cells compared with parental cells [5]: significantly blocked cell growth to a greater extent than parental cells
- BET protein levels [6]: reduced BRD2 and BRD4 proteins
- growth inhibition (OVCAR5 JQ1-R cells): minimal growth inhibition

SMILES: CNc1ncc2cc(-c3cc(NC(=O)NCCC(C)(C)C)c(F)cc3C)c(C)nc2n1 [LY3009120]
- cell viability of JQ1-R cells (OVCAR8 JQ1-R cells [7]): most profound impact on JQ1-R cell viability

SMILES: CCC(=O)N1CCN(c2ccc(-n3c(=O)ccc4cnc5ccc(-c6cnc7ccccc7c6)cc5c43)cc2C(F)(F)F)CC1 [Torin-1]
- BET protein levels [2]: reduced BRD2 and BRD4 levels
- BET protein levels [3]: reduced BRD2 and BRD4 levels
- phosphorylation of P70S6K (T359) [4]: reduced MTOR-mediated phosphorylation of P70S6K (T359)

SMILES: O=C(c1cc(Cc2n[nH]c(=O)c3ccccc23)ccc1F)N1CCN(C(=O)C2CC2)CC1 [olaparib]
- cell viability of MZ1-R cells compared with parental cells (OVCAR8 MZ1-R cells [8]): more sensitive
- cell viability of JQ1-R cells (OVCAR8 JQ1-R cells [7]): more sensitive

SMILES: NC1(c2ccc(-c3nc4ccn5c(=O)[nH]nc5c4cc3-c3ccccc3)cc2)CCC1 [MK-2206]
- sensitivity of MZ1-R cells relative to JQ1-R cells or parental cells (OVCAR8 MZ1-R cells [8]): more sensitive
- cell viability of ARV-R cells compared with parental cells (OVCAR8 ARV-R cells [1]): reduced cell viability more than in parental cells

SMILES: CCN(CCO)CCCC(C)Nc1ccnc2cc(Cl)ccc12 (stereo not shown) [hydroxychloroquine]
- cell viability of MZ1-R cells compared with parental cells (OVCAR8 MZ1-R cells [8]): more sensitive
- cell viability of JQ1-R cells (OVCAR8 JQ1-R cells [7]): more sensitive

SMILES: COc1ncccc1-c1cnn2ccc(N3CCN(C(=O)OC(C)C)CC3)nc12 [LP-935509]
- sensitivity of MZ1-R cells relative to JQ1-R cells or parental cells (OVCAR8 MZ1-R cells [8]): more sensitive
- cell viability of ARV-R cells compared with parental cells (OVCAR8 ARV-R cells [1]): reduced cell viability more than in parental cells

SMILES: Cc1sc2c(c1C)C(c1ccc(Cl)cc1)=N[C@@H](CC(=O)OC(C)(C)C)c1nnc(C)n1-2 [JQ1]
- GI50 (OVCAR8 cells [9]): 133 nM
- RNA pol II (S2) phosphorylation [10]: not observed with JQ1
- cell viability of MZ1-R cells compared with parental cells (OVCAR8 MZ1-R cells [8]): reduced cell viability to a greater extent than parental cells
- cell viability of ARV-R cells compared with parental cells (OVCAR8 ARV-R cells [1]): reduced cell viability to a greater extent than parental cells
- cell viability of JQ1-R cells (OVCAR8 JQ1-R cells [7]): unaffected by increasing doses of JQ1
- BRD4 target (FOSL1, MYC) protein levels (BET proteins, FOSL1, MYC): failed to reduce BRD4 target FOSL1

SMILES: CNC(=O)c1ccccc1Nc1cc(Nc2ccc(N3CCOCC3)cc2OC)ncc1C(F)(F)F [PND-1186]
- sensitivity of MZ1-R cells relative to JQ1-R cells or parental cells (OVCAR8 MZ1-R cells [8]): more sensitive

SMILES: O=C(O)c1ccc2c(c1)nc(Nc1cccc(Cl)c1)c1ccncc12 [Cx-4945]
- cell viability of MZ1-R cells compared with parental cells (OVCAR8 MZ1-R cells [8]): more sensitive
- cell viability of JQ1-R cells (OVCAR8 JQ1-R cells [7]): more sensitive

SMILES: Cc1sc2c(c1C)C(c1ccc(Cl)cc1)=N[C@@H](CC(=O)Nc1ccc(OCCOCCOCCOCCNc3cccc4c3C(=O)N(C3CCC(=O)NC3=O)C4=O)cc1)c1nnc(C)n1-2 (stereo partly shown) [ARV825]
- BET protein levels [11]: degraded BET proteins in a concentration-dependent manner
- global protein level changes (OVCAR8 cells [12]): uniquely downregulated proteins involved in ribosome and translation signaling
- cell viability of MZ1-R cells compared with parental cells (OVCAR8 MZ1-R cells [8]): inhibited cell viability
- cell viability of ARV-R cells compared with parental cells (OVCAR8 ARV-R cells [1]): rightward shift
- cell viability of JQ1-R cells (OVCAR8 JQ1-R cells [7]): inhibited cell viability
- BET protein levels [2]: reduced BET proteins
- BET protein levels [3]: insufficient to degrade BRD2, BRD3 or BRD4
- BET protein levels (BET proteins, FOSL1, MYC): degraded BET proteins
- BRD4 target (FOSL1, MYC) protein levels (BET proteins, FOSL1, MYC): reduced MYC/FOSL1 protein levels
- apoptosis (OVCAR8 MZ1-R cells [13]): promoted apoptosis
- apoptosis (OVCAR8 JQ1-R cells [14]): induced apoptosis

SMILES: COC[C@@H](C)NC1CCC(Nc2cc(-c3cccc(NCC4(C#N)CCOCC4)n3)c(Cl)cn2)CC1 (stereo partly shown) [NVP-2]
- cell viability of MZ1-R cells compared with parental cells (OVCAR8 MZ1-R cells [8]): more sensitive
- cell viability of JQ1-R cells (OVCAR8 JQ1-R cells [7]): more sensitive

SMILES: Cc1ncsc1-c1ccc([C@H](C)NC(=O)[C@@H]2C[C@@H](O)CN2C(=O)[C@@H](NC(=O)COCCCOCCNC(=O)C[C@@H]2N=C(c3ccc(Cl)cc3)c3c(sc(C)c3C)-n3c(C)nnc32)C(C)(C)C)cc1 [ARV-771]
- cell viability of MZ1-R cells compared with parental cells (OVCAR8 MZ1-R cells [8]): cross-resistant
- cell viability of ARV-R cells compared with parental cells (OVCAR8 ARV-R cells [1]): failed to reduce BET proteins, block growth or induce apoptosis
- BET protein levels [3]: failed to reduce BET proteins, block growth or induce apoptosis
- apoptosis (OVCAR8 ARV-R cells [15]): failed to reduce BET proteins, block growth or induce apoptosis

SMILES: CC(C)C[C@H](NC(=O)[C@H](Cc1ccccc1)NC(=O)c1cnccn1)B(O)O [bortezomib]
- phosphorylated RNA pol II (S2) ([4]; OVCAR8 MZ1-R cells, 48 hour RAD001 treatment, with or without bortezomib): could be reversed by bortezomib treatment

SMILES: CS(=O)(=O)N1CCN(Cc2cc3nc(-c4cccc5[nH]ncc45)nc(N4CCOCC4)c3s2)CC1 [GDC-0941]
- cell viability of MZ1-R cells compared with parental cells (OVCAR8 MZ1-R cells [8]): more sensitive
- cell viability of JQ1-R cells (OVCAR8 JQ1-R cells [7]): more sensitive

— patent US12636370B2, “Combination therapy for treatment of cancer” (Institute For Cancer Research, priority 2019, dated 2026)
